Measured values published in patent US20140314704A1, “Treatment of B Cell Lymphomas” (Senesco Technologies, Inc., priority 2011, published 2014).
Like-named read-outs stand apart in the source and are kept apart here.

Columns and labels:
Assay type in all cases: cell-based
[1] = tested on: KAS-6/1; experiment: IC50 of multiple myeloma drugs alone and with IC20 SNS01-T, KAS-6/1; conditions: for fold less IC50 with IC20 SNS01-T: KAS-6/1, with versus without IC20 SNS01-T
[2] = tested on: RPMI-8226; experiment: IC50 of multiple myeloma drugs alone and with IC20 SNS01-T, RPMI-8226; conditions: for IC50: Homo sapiens; for fold less IC50 with IC20 SNS01-T: RPMI-8226, with versus without IC20 SNS01-T
[3] = tested on: U266; experiment: IC50 of multiple myeloma drugs alone and with IC20 SNS01-T, U266; conditions: for IC50: Homo sapiens, U-266; for fold less IC50 with IC20 SNS01-T: U266, with versus without IC20 SNS01-T
[4] = KAS-6/1, drug alone, read-out: IC50
[5] = KAS-6/1, with IC20 SNS01-T, read-out: IC50 with IC20 SNS01-T
[6] = RPMI-8226, drug alone, read-out: IC50
[7] = RPMI-8226, with IC20 SNS01-T, read-out: IC50 with IC20 SNS01-T
[8] = U266, drug alone, read-out: IC50
[9] = U266, with IC20 SNS01-T, read-out: IC50 with IC20 SNS01-T

Row | IC50 [1, 4] [nM] | IC50 [1, 5] [nM] | fold less IC50 with IC20 SNS01-T [1] [×] | IC50 [2, 6] [nM] | IC50 [2, 7] [nM] | fold less IC50 with IC20 SNS01-T [2] [×] | IC50 [3, 8] [nM] | IC50 [3, 9] [nM] | fold less IC50 with IC20 SNS01-T [3] [×] | Structure (SMILES)
1 | 69800 | 2370 | ~29 | 84900 | 3280 | 25.9 | 62000 | 1420 | ~43.7 | Nc1cccc2c1CN(C1CCC(=O)NC1=O)C2=O (stereo not drawn) [Lenalidomide, lenalidomide]
2 | 7.31 | 2.64 | ~2.8 | 2.12 | 1.51 | ~1.4 | 2.86 | 0.83 | ~3.4 | CC(C)C[C@H](NC(=O)[C@H](Cc1ccccc1)NC(=O)c1cnccn1)B(O)O [Bortezomib, bortezomib]
